Patent US20240261243A1, “NITRIC OXIDE DONORS, COMPOSITIONS, AND METHODS OF USE” (priority 2020, published 2024)
“And” between values parts separate entries of the source, which are not always exact repeats. Equal values may be shown once.

Key:
[1] = NO release half-life of diazeniumdiolate NO donors in aqueous media at pH 7.4; format: physicochemical
Description: The rate of nitric oxide release from diazeniumdiolates can be controlled using a variety of structural features.

[2] = NO storage and release measurement (chemiluminescence nitric oxide analyzer); format: physicochemical
Experimental: N-diazeniumdiolates NO scaffolds are pH-triggered NO-release donors. Reacting with proton in the physiological condition (e.g., 37° C., pH 7.4), 1 mole of N-diazeniumdiolate regenerates 1 mole of the parent secondary amine compounds and two moles of NO radicals. The real-time detection of NO was performed by using a chemiluminescence-based nitric oxide analyzer (NOA). The total NO storage and dissociation kinetics of water-soluble NO Donors were measured in physiological condition (pH 7.40, 37° C.). The resulting NO-release parameters (e.g., total NO storage, half-life of NO release, maximum flux, and conversion efficiency) were evaluated for suitability as a pharmaceutical product.
Transfer the solution into the high-pressure vessel and purge the headspace with nitrogen. Mix the solution and set nitric oxide pressure to 25 bar (temp 20° C.). Allow the reaction to run for minimum of 3 days. Stop the reaction by venting the NO. Precipitate the reaction product in acetone (10:1 acetone:reaction mixture). Filter the precipitate and vacuum dry.
We sought to determine whether an NO donor and gallium nitrate have antimicrobial synergy against a lab strain of P. aeruginosa (PAK). The Checkerboard assay (described herein) was used with a hepta-substituted cyclodextrin-based NO donor (hereinafter referred to as BIOC76) having approximately ˜4.7 μmol NO/mg dry powder.

P. aeruginosa strains = experiment: MIC/MBC of BIOC76 and gallium citrate alone against 21 strains; format: cell-based, Pseudomonas aeruginosa; conditions: for MBC Rep 1 / MIC Rep 1: alone
Description: Determined the MIC of each test article individually against the strains being tested using the CLSI MIC/MBC method.
In this study, we established the MIC/MiBC's of BIOC76 and gallium citrate alone against each of 21 P. aeruginosa strains. […] The activity of both compounds is also strain-dependent. The results are as follows (the species for each strain is Pseudomonas aeruginosa: […]

P. aeruginosa (PAK) = experiment: Combination MIC/MBC assay, BIOC76 with fixed gallium citrate; format: cell-based, Pseudomonas aeruginosa; conditions: PAK; alone
Experimental: Combination MIC/MBC assays are useful when you want to look at only a few concentrations of one compound (Gallium citrate) combined with many concentrations of the second compound (BIOC76).
This method also allows us to see the change in both the MIC and MBC of a drug when in combination with another drug. Checkerboard assays only allow us to see changes in the MIC's.
Test articles are added to a 96-well plate so that when a 2× bacterial culture (prepared to 10^6 CFU/ml) is added, the final concentration in all wells was 1×.
All test articles are prepared at 4×→diluted 1:1 when other TA is added (2×) and diluted 1:1 again to 1× when bacteria are added.
TA #1 (Gallium citrate) is prepared and added to entire rows of a plate at a single concentration.
TA #2 (BIOC76) in then prepared and serially diluted in TA #1, so there are 2-fold dilutions of TA #2 combined with a single concentration of TA #1.
Plates were incubated at 37° C. for 18-24 h.
The ΔMIC/IBC is used to show the change in the MIC/IBC of BIOC76 when in combination with Gallium citrate (compared to when BIOC76 is used alone).
ΔMIC/MBC is the fold-decrease in BIOC76 concentration as a result of the combination.
We concluded BIOC76 and gallium citrate maintain synergistic activity so long as the gallium concentration is at least about 0.005 to about 0.02 mg/ml. In this experimental, we set up MIC/MBC assay and serially diluted BIOC76 in rows with fixed concentrations of gallium citrate. […] The results are shown in FIG. 6, and in the following tables: […]

P. aeruginosa biofilms = experiment: Biofilm eradication (MBEC) on peg lid
[3] = N-methyl amine; cited from earlier work
[4] = target: angiotensin-converting enzyme 2 (ACE2) (Homo sapiens, UniProt Q9BYF1); conditions: ACE2 inhibitor from foodstuffs; cited from earlier work
Sequence of angiotensin-converting enzyme 2 (ACE2) (Q9BYF1 18-805): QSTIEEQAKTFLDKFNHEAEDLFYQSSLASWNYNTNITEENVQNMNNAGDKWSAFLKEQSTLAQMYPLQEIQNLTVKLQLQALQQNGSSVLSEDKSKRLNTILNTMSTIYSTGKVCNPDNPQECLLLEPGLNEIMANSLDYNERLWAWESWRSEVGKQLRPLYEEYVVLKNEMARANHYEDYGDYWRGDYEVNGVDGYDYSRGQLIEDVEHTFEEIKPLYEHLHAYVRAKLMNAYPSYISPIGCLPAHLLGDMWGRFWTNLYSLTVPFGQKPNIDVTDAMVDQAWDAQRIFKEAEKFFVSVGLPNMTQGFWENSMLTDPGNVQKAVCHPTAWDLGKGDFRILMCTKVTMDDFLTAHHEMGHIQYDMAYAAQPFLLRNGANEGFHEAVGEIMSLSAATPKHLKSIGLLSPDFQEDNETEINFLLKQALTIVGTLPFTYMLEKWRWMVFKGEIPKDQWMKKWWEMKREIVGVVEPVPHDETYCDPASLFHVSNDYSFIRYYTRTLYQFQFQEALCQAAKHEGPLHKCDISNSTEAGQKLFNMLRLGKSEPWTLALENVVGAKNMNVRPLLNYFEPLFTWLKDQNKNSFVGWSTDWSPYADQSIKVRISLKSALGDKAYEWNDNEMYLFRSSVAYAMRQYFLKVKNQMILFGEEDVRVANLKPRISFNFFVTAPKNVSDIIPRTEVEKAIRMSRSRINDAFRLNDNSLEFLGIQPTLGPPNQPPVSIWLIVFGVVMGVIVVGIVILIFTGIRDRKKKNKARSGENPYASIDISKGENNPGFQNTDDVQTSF

[5] = PAK (N0049), 3-log reduction in biofilm

Experimental for P. aeruginosa strain PAK: All test articles are prepared at 4×→diluted 1:1 when other TA is added (2×), and diluted 1:1 again to 1× when bacteria are added
Experimental Design: The MIC of BIOC76 and Gallium nitrate individually, then set up a checkerboard assay testing 49 combinations of BIOC76 and Gallium nitrate concentrations against 10^6 CFU/ml P. aeruginosa strain PAK. Plates were incubated at 37° C. for 18-24 h, and growth was assessed visually.

C[C@@H]1CCC[C@H](C)N1N(O)N=O [Entry 22, 2,6 cis-dimethylpiperdine-NONOate]
rate of NO release, fold slower than unsubstituted piperidine ([1]; vs entry 19): over 60 fold
Max Flux [2]: 4933 ppb/mg
NO Total [2]: 3.7 µmol/mg
half-life ([2]; physiological condition (pH 7.40, 37° C.), buffer not named, pH 7.4, NO release): 1.3 h

CC(C)C[C@H](NC(=O)[C@@H]1CCCN1N(O)N=O)C(=O)NCC(N)=O [Entry 49]
diazeniumdiolate half-life, fold longer than unsubstituted pyrrolidine analog ([1]; vs entry 29): 140 fold
diazeniumdiolate half-life, fold longer than proline carboxylate analog ([1]; vs entry 30): over 200 fold

O=NN(O)N1C2CCC1c1ccccc12 [Entry 50]
fold more stable than monocyclic dimethyl-substituted pyrrolidine analog ([1]; vs entry 23): 8 fold

O=C([O-])CC(O)(CC(=O)[O-])C(=O)[O-].[Ga+3] [Gallium citrate, gallium citrate, reference compound]
killing of P. aeruginosa strains (conclusion) (P. aeruginosa strains; 21 P. aeruginosa strains): does not kill any strain of P. aeruginosa
mode of activity alone (conclusion) (P. aeruginosa strains; 21 P. aeruginosa strains): largely bacteriostatic
MBC Rep 1 (P. aeruginosa strains; strain N0047 (AR-BANK #103)): >2000 µg/mL
MIC Rep 1 (P. aeruginosa strains; strain N0047 (AR-BANK #103)): 250 µg/mL
MBC Rep 1 (P. aeruginosa strains; strain N0048 (ATCC 19143)): >2000 µg/mL
MIC Rep 1 (P. aeruginosa strains; strain N0048 (ATCC 19143)): 2000 µg/mL
MBC Rep 1 (P. aeruginosa strains; strain N0049 (PAK)): >2000 µg/mL
MIC Rep 1 (P. aeruginosa strains; strain N0049 (PAK)): 65 µg/mL
MBC Rep 1 (P. aeruginosa strains; strain N0050 (AR-BANK #0095)): >2000 µg/mL
MIC Rep 1 (P. aeruginosa strains; strain N0050 (AR-BANK #0095)): 250 µg/mL
MBC Rep 1 (P. aeruginosa strains; strain N0051 (AU32077)): >2000 µg/mL
MIC Rep 1 (P. aeruginosa strains; strain N0051 (AU32077)): 250 µg/mL
MIC Rep 1 (P. aeruginosa strains; strain N0052 (AU25834)): >2000 µg/mL
MBC Rep 1 (P. aeruginosa strains; strain N0053 (AU30524)): >2000 µg/mL
MIC Rep 1 (P. aeruginosa strains; strain N0053 (AU30524)): 250 µg/mL
MBC Rep 1 (P. aeruginosa strains; strain N0054 (AU26773)): >2000 µg/mL
MIC Rep 1 (P. aeruginosa strains; strain N0054 (AU26773)): 125 µg/mL
MBC Rep 1 (P. aeruginosa strains; strain N0055 (AU22725)): >2000 µg/mL
MIC Rep 1 (P. aeruginosa strains; strain N0055 (AU22725)): 62.5 µg/mL
MBC Rep 1 (P. aeruginosa strains; strain N0056 (AU22505)): >2000 µg/mL
MIC Rep 1 (P. aeruginosa strains; strain N0056 (AU22505)): 1000 µg/mL
MBC Rep 1 (P. aeruginosa strains; strain N0057 (AU35400)): >2000 µg/mL
MIC Rep 1 (P. aeruginosa strains; strain N0057 (AU35400)): 65 µg/mL
MBC Rep 1 (P. aeruginosa strains; strain N0058 (AU32543)): >2000 µg/mL
MIC Rep 1 (P. aeruginosa strains; strain N0058 (AU32543)): 500 µg/mL
MBC Rep 1 (P. aeruginosa strains; strain N0059 (AR-BANK #0054)): >2000 µg/mL
MIC Rep 1 (P. aeruginosa strains; strain N0059 (AR-BANK #0054)): 32.5 µg/mL
MBC Rep 1 (P. aeruginosa strains; strain N0069 (AR-BANK #0090)): >2000 µg/mL
MIC Rep 1 (P. aeruginosa strains; strain N0069 (AR-BANK #0090)): 125 µg/mL
MBC Rep 1 (P. aeruginosa strains; strain N0070 (AR-BANK #0092)): >2000 µg/mL
MIC Rep 1 (P. aeruginosa strains; strain N0070 (AR-BANK #0092)): 62.5 µg/mL
MBC Rep 1 (P. aeruginosa strains; strain N0071 (AR-BANK #0100)): >2000 µg/mL
MIC Rep 1 (P. aeruginosa strains; strain N0071 (AR-BANK #0100)): 125 µg/mL
MBC Rep 1 (P. aeruginosa strains; strain N0072 (AR-BANK #0105)): >2000 µg/mL
MIC Rep 1 (P. aeruginosa strains; strain N0072 (AR-BANK #0105)): 500 µg/mL
MBC Rep 1 (P. aeruginosa strains; strain N0079 (AR-BANK #0108)): >2000 µg/mL
MIC Rep 1 (P. aeruginosa strains; strain N0079 (AR-BANK #0108)): 125 µg/mL
MBC Rep 1 (P. aeruginosa strains; strain N0080 (AR-BANK #0110)): >2000 µg/mL
MIC Rep 1 (P. aeruginosa strains; strain N0080 (AR-BANK #0110)): 125 µg/mL
MBC Rep 1 (P. aeruginosa strains; strain N0081 (AR-BANK #0111)): >2000 µg/mL
MIC Rep 1 (P. aeruginosa strains; strain N0081 (AR-BANK #0111)): 250 µg/mL
MBC Rep 1 (P. aeruginosa strains; strain N0099 (ATCC 29260)): >2000 µg/mL
MIC Rep 1 (P. aeruginosa strains; strain N0099 (ATCC 29260)): 125 µg/mL
MIC GaCi (P. aeruginosa (PAK)): 65 µg/mL

O=[N+]([O-])[O-].O=[N+]([O-])[O-].O=[N+]([O-])[O-].[Ga+3] [Gallium nitrate, gallium nitrate, reference compound]
MIC Ga(NO3)3 alone (P. aeruginosa strain PAK): 65 µg/mL
MIC Ga(NO3)3 combo (P. aeruginosa strain PAK; in combination with BIOC76): 15 µg/mL
MBEC of Gallium nitrate (P. aeruginosa biofilms; [5]): >16 mg/mL
effectiveness against P. aeruginosa biofilms (P. aeruginosa biofilms; biofilms grown under aerobic conditions): is not

C[C@@H]1CCC[C@H](C)N1C [N-methyl-cis-2,6-dimethylpiperidine]
pKa [3]: 9.35

N[C@@H](CCN[C@@H](CCN1CC[C@H]1C(=O)O)C(=O)O)C(=O)O [Nicotianamine]
IC50 [4]: 84 nM

NC[C@H]1O[C@H](O[C@H]2[C@H](O)[C@@H](O[C@H]3O[C@H](CO)[C@@H](O)[C@H](N)[C@H]3O)[C@H](N)C[C@@H]2N)[C@H](N)C[C@@H]1O [Tobra, Tobramycin]
MBEC of Tobra (P. aeruginosa biofilms; [5]): 8 µg/mL and 4 µg/mL
